Experiments:
[1] = tested on: UV induced apoptosis in mouse skin; conditions: from cited literature; cited from earlier work
[2] = tested on: MMP-1 expression in human dermal fibroblasts (HDFs); assay: MMP-1 expression by western blot of culture supernatants of UV-exposed human dermal fibroblasts pretreated with kinase inhibitors; type: cell-based; conditions: UVB 60 mJ/cm^2, medium collected 24 hours after exposure
Protocol: Human dermal fibroblasts AG04058 (Coriell Institute for Medical Research, Camden, N.J.) were cultured and maintained in MEM containing glucose (4.5 mg/ml), glutamine (2 mM), […], and 10% heat-inactivated fetal bovine serum. For cell transfection, Fugene 6 transfection kit (Roche, Germany) was used to deliver Syk cDNA and the Saint-Red siRNA delivery system (Synvolux Therapeutics B.V., The Netherlands) was chosen to transfect Syk siRNA and control siRNA (Santa Cruz Biotechnology Inc., Santa Cruz, Calif.) into the cells. Cells were exposed to UVB (312 nm) (60 mJ/cm^2) by a Stratalinker UV Crosslinker (Stratagene, La Jolla, Calif.). Cell supernatants were collected 24 hrs after UV exposure, and prepared for MMP-1 expression assay.
Twenty-four hours after UV exposure, the culture media of HDFs were collected for MMP-1 assay. Based on OD280 measurement, equal amounts of proteins from the supernatants were mixed with 2× sample buffer, boiled for 5 min and chilled on ice. Samples were then subjected to […] and electrophoretically transferred to nitrocellulose membrane. The membrane was blocked with 5% dry milk in washing buffer. MMP-1 was detected with anti-MMP-1 antibody, and the results were visualized by an ECL detection system. For Syk protein and MAPK activation western blot assays, cell pellets were lysed in 1× Triton X-100 lysis buffer (1% Triton X-100, 5 mmol/L Hepes—KOH, pH 7.4) in the presence of protease and phosphatase inhibitors containing 5 mM EGTA, 3 mM Na orthovanadate, 2 mM phenylmethylsulfonyl fluoride, and […] aprotinin and leupeptin (Sigma Chemical Co., St. Louis, Mo.). Following centrifugation at 12,000 rpm for 30 min at 4° C., the cleared lysates were subjected to the same procedure as that followed for MMP-1 assay. Syk protein and MAPK activation were detected with anti-Syk antibody and anti-phospho-MAPK antibodies, respectively, by western blot. For the activation of Syk kinase assay, briefly, cell lysates were precleared by incubation with protein G plus agarose (Santa Cruz Biotechnology, Inc.), and then incubated overnight at 4° C. with anti-Syk antibody. Immune complexes would bind to protein G plus agarose in the lysis buffer. The agarose beads were washed three times with lysis buffer and the adsorbed proteins were eluted into the sample buffer. Tyrosine phosphorylation of Syk kinase (Syk activation) was determined with anti-phosphotyrosine antibody by western blot.
Human fibroblast cells (AG04058) were seeded into 24-well tissue culture dishes with MEM medium one day before the assay. Specific inhibitors for each kinase were added into each different well as indicated (FIG. 4). […]
The dose-response of piceatannol inhibition was assessed in HDFs exposed to UVB (60 mJ/cm^2) (FIG. 9B).

| SMILES | UV induced apoptosis in mouse skin, in words [1] | inhibition of MMP-1 expression (western blot, image-density analysis) ([2]; piceatannol 1 μg/ml) | inhibition of MMP-1 expression (western blot, image-density analysis) ([2]; piceatannol 5 μg/ml) | inhibition of MMP-1 expression (western blot, image-density analysis) ([2]; piceatannol 10 μg/ml) | inhibition of MMP-1 expression (western blot, image-density analysis) ([2]; piceatannol 25 μg/ml) |
| --- | --- | --- | --- | --- | --- |
| Oc1ccc(-c2nc(-c3ccncc3)c(-c3ccc(F)cc3)[nH]2)cc1 [SB202190] | blocked | – | – | – | – |
| Oc1cc(O)cc(/C=C/c2ccc(O)c(O)c2)c1 [piceatannol] | – | no inhibition | no inhibition | 20% | 63% |

Source: US9551710B2, “Signaling molecule involved in ultraviolet damage to skin” (Drexel University, priority 2010, dated 2017)
